For assay [1], the target named is T1, Neuropeptide Y receptor type 5 (Homo sapiens, UniProt Q15761).
T1 sequence (Q15761 whole entry): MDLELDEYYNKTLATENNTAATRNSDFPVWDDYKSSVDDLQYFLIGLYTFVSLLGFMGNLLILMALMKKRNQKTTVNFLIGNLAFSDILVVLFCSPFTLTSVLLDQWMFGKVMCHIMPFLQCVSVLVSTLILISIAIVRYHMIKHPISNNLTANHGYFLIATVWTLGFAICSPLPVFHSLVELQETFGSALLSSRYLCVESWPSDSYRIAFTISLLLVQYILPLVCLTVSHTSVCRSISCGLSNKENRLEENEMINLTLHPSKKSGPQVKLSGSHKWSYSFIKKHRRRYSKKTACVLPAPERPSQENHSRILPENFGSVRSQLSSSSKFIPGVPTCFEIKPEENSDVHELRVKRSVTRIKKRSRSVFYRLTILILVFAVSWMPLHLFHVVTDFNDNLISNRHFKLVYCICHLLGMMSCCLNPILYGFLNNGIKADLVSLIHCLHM
The assay can be described thus: Inhibitory activity against neuropeptide Y receptor type 5 by using [125I]PYY as radioligand expressed in COS-1 cells. Type of assay: cell-based.

Assay [2] has as its target Melanin-concentrating hormone receptor 1 (Homo sapiens, UniProt Q99705). The assay can be described thus: Inhibitory activity against human CA-MCH-R1 (Melanin-concentrating hormone receptor 1) by using [125I](Phe13,Tyr19)MCH as radioligand expressed in HEK293 cells. Format: cell-based.
For assay [3], the target named is T2, Alpha-2A adrenergic receptor (Homo sapiens, UniProt P08913).
T2 sequence (P08913 whole entry): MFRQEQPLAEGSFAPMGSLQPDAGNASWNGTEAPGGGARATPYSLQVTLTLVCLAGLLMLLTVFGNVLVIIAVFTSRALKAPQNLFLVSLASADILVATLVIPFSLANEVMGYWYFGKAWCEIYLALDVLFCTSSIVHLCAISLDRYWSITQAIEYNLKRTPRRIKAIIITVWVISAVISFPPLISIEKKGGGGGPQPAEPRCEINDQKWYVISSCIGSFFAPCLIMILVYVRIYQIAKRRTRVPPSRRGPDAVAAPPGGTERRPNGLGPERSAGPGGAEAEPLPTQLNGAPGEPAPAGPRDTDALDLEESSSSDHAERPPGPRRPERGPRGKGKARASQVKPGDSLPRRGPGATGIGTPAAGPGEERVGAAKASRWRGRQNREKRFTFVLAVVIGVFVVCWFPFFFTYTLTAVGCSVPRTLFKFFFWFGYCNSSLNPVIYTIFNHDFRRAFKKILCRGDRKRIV
Description: Inhibitory activity against alpha-2A adrenergic receptor by using [3H]MK-912 as radioligand expressed in COS-1 cells. Format: cell-based.

The species named for the next assay is Homo sapiens. The assay can be described thus: Selective ratio against Alpha2A adrenergic receptor to that of MCH.

For 27 compounds, IC50 and Selectivity results are on record in ChEMBL document CHEMBL1142793, “Lead optimization of 4-(dimethylamino)quinazolines, potent and selective antagonists for the melanin-concentrating hormone receptor 1” (Bioorg Med Chem Lett, 2005).

SMILES strings stand for the structures. Bounds are passed on as bounds.

Melanin-concentrating hormone receptor 1, sequence (Q99705 whole entry): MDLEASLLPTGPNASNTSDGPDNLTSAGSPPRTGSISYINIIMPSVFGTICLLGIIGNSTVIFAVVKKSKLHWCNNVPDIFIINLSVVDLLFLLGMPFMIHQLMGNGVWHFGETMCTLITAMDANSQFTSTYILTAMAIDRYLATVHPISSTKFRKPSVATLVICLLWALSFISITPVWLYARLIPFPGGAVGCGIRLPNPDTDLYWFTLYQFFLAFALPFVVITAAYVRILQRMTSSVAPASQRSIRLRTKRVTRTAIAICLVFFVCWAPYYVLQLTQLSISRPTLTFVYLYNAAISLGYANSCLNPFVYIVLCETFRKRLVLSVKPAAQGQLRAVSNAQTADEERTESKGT

Take `CN(Cc1ccc(Br)cc1OC(F)(F)F)CC1CCC(CNc2nc(N(C)C)c3ccccc3n2)CC1` (stereo unspecified): the results for the IC50 in assay [1], in assay [2] and in assay [3] were above 1000 nM, 5600 nM and 44 nM, respectively.

`CN(C)c1nc(NC[C@H]2CC[C@H](CNS(=O)(=O)c3ccc(Br)cc3OC(F)(F)F)CC2)nc2ccccc12`: the IC50 (commonly the concentration at which inhibition is half-maximal) in assay [1] worked out at 2.7 nM; in assay [2], 160 nM; in assay [3], 7.7 nM.

Take `CN(C)c1nc(N[C@H]2CC[C@@H](NS(=O)(=O)c3ccc(Br)cc3OC(F)(F)F)CC2)nc2ccccc12`: the results for the IC50 in assay [1], in assay [2] and in assay [3] were 880 nM, 83 nM and 57 nM, respectively.

Regarding `CN(C)c1nc(N[C@H]2CC[C@@H](NC(=O)c3ccc(Cl)c(Cl)c3)CC2)nc2ccccc12`, the IC50 was 5 nM in assay [2] and 47 nM in assay [3]. Further, in the assay listed under Homo sapiens, the Selectivity was found to be 9.4.

`CN(C)c1nc(N[C@H]2CC[C@@H](NC(=O)c3ccc(F)c(F)c3F)CC2)nc2ccccc12`: the IC50 was found to be 38 nM in assay [2] and 200 nM in assay [3]. For the same compound, the Selectivity in the assay listed under Homo sapiens was determined as 5.3.

Turning to `CN(C)c1nc(N[C@H]2CC[C@@H](CNS(=O)(=O)c3ccc(Br)cc3OC(F)(F)F)CC2)nc2ccccc12`, the values for the IC50 in assay [1], in assay [2] and in assay [3] were 120 nM, 140 nM and 130 nM, respectively.

As to `COc1cc(OC)cc(C(=O)N[C@H]2CC[C@@H](Nc3nc(N(C)C)c4ccccc4n3)CC2)c1`, the half-maximal inhibitory concentration (IC50) in assay [2] was found to be 2 nM; in assay [3], 71 nM. Also, in the assay listed under Homo sapiens, the Selectivity is 36.

Consider `CN(C)c1nc(NC2CCC(CNC(=O)c3ccc(Br)cc3OC(F)(F)F)CC2)nc2ccccc12` (cis isomer), for which the values for the 50% inhibitory concentration (IC50) in assay [1], in assay [2] and in assay [3] were 1800 nM, 79 nM and 570 nM, respectively.

On to `CN(C)c1nc(NCC2CCC(CN(C)S(=O)(=O)c3ccc(Br)cc3OC(F)(F)F)CC2)nc2ccccc12` (stereo unspecified), for which the values for the IC50 in assay [1], in assay [2] and in assay [3] were 460 nM, 5800 nM and 34 nM, respectively.

Consider `CN(C)c1nc(NC2CCN(Cc3ccc(Br)cc3OC(F)(F)F)CC2)nc2ccccc12`, for which the half-maximal inhibitory concentration (IC50) in assay [1] was above 1000 nM; in assay [2], 320 nM; in assay [3], 520 nM.

Regarding `CN(C)c1nc(N[C@H]2CC[C@@H](NC(=O)c3cccc(F)c3)CC2)nc2ccccc12`, the IC50 in assay [2] is 9.5 nM; in assay [3] it was 130 nM. In addition, in the assay listed under Homo sapiens, the Selectivity is 14.

In the case of `Cc1cccc(C(=O)N[C@H]2CC[C@@H](Nc3nc(N(C)C)c4ccccc4n3)CC2)c1`, the results for the IC50 in assay [2] and in assay [3] were 4.6 nM and 110 nM, respectively. The Selectivity in the assay listed under Homo sapiens came to 24.

For the compound `CN(C)c1nc(NC2CCN(S(=O)(=O)c3ccc(Br)cc3OC(F)(F)F)CC2)nc2ccccc12`, the figures for the IC50 in assay [2] and in assay [3] were 250 nM and 170 nM, respectively.

For the compound `CN(C)c1nc(N[C@H]2CC[C@@H](NC(=O)c3ccc(F)cc3)CC2)nc2ccccc12`, the IC50 amounted to 9.4 nM in assay [2] and 150 nM in assay [3]. The Selectivity in the assay filed under Homo sapiens came to 16.

On to `CN(C)c1nc(N[C@H]2CC[C@@H](NC(=O)c3ccc(F)c(F)c3)CC2)nc2ccccc12`, for which the IC50 amounted to 2700 nM in assay [1] and 260 nM in assay [3].

In the case of `CN(C)c1nc(NCC2CCC(CNCc3ccc(Br)cc3OC(F)(F)F)CC2)nc2ccccc12` (stereo unspecified), the IC50 was found to be 560 nM in assay [1], 960 nM in assay [2] and 31 nM in assay [3].

With `CN(C)c1nc(N[C@H]2CC[C@@H](NC(=O)c3cccc(C#N)c3)CC2)nc2ccccc12`, the IC50 stood at 10 nM in assay [2] and 150 nM in assay [3]. The Selectivity in the assay listed under Homo sapiens was found to be 15.

The compound `CN(C)c1nc(NC2CCN(C(=O)c3ccc(Br)cc3OC(F)(F)F)CC2)nc2ccccc12` registered an IC50 in assay [2] of 1200 nM.

As for `CN(C)c1nc(N[C@H]2CC[C@@H](NC(=O)c3ccccc3F)CC2)nc2ccccc12`, the IC50 in assay [2] turned out to be 170 nM.

As for `CN(C)c1nc(N[C@H]2CC[C@@H](NC(=O)c3cccc(C(F)(F)F)c3)CC2)nc2ccccc12`, the IC50 in assay [2] amounted to 15 nM; in assay [3], 60 nM. Also, the Selectivity in the assay listed under Homo sapiens came out at 4.

Consider `CN(C)c1nc(N[C@H]2CC[C@@H](NC(=O)c3cccc([N+](=O)[O-])c3)CC2)nc2ccccc12`, for which the half-maximal inhibitory concentration (IC50) in assay [2] was 6.8 nM; in assay [3], 97 nM. Moreover, in the assay listed under Homo sapiens, the Selectivity worked out at 14.

`CN(C)c1nc(NC2CCC(NCc3ccc(Br)cc3OC(F)(F)F)CC2)nc2ccccc12` (stereo unspecified): the IC50 was above 1000 nM in assay [1], 35 nM in assay [2] and 170 nM in assay [3].

For `CN(C)c1nc(NC2CCC(CNCc3ccc(Br)cc3OC(F)(F)F)CC2)nc2ccccc12` (cis isomer), the IC50 in assay [1] is 2400 nM; in assay [2] it was 4.9 nM; in assay [3], 360 nM.

On to `CN(C)c1nc(N[C@H]2CC[C@@H](NC(=O)c3cccc(Br)c3)CC2)nc2ccccc12`, for which the IC50 in assay [2] is 5.9 nM; in assay [3], 63 nM. Besides, the Selectivity in the assay filed under Homo sapiens amounted to 11.

`CN(C)c1nc(NCC2CCC(CNC(=O)c3ccc(Br)cc3OC(F)(F)F)CC2)nc2ccccc12` (stereo unspecified): the values for the IC50 in assay [1], in assay [2] and in assay [3] were 470 nM, 1500 nM and 9.9 nM, respectively.

As for `CN(C)c1nc(NC2CCC(NC(=O)c3ccc(Br)cc3OC(F)(F)F)CC2)nc2ccccc12` (cis isomer), the IC50 is above 1000 nM in assay [1], 160 nM in assay [2] and 390 nM in assay [3]. Moreover, the Selectivity in the assay listed under Homo sapiens was found to be 2.4.

Consider `CN(C)c1nc(N[C@H]2CC[C@@H](NC(=O)c3cccc(Cl)c3)CC2)nc2ccccc12`, for which the IC50 amounted to 4.5 nM in assay [2] and 76 nM in assay [3]. Besides, in the assay listed under Homo sapiens, the Selectivity is 17.
